Data: patent US10837044B2, “Automated method for analyzing and interpreting an antimicrobial susceptibility” (FONDATION MEDITERRANEE INFECTION, priority 2014, dated 2020)

Columns and labels:
[1] = tested on: Proteus mirabilis; assay: antibiogram by diffusion on Mueller-Hinton agar with antibiotic wafers; format: cell-based; details: Table C1, six wafers, disk loads of Table B
[2] = tested on: Escherichia coli; assay: as above; format: cell-based; details: for resistance (I, R) or sensitivity (S): Table C1, disk loads of Table B; for resistant (I/R) or sensitive (S): Table C2, square dish
[3] = tested on: Klebsiella pneumoniae; assay: as above; format: cell-based; details: for resistant (I/R) or sensitive (S): Table C2, sixteen wafers, square dish; for resistance (I, R) or sensitivity (S): Table C1, six wafers, disk loads of Table B
[4] = tested on: Pseudomonas aeruginosa; assay: as above; format: cell-based; details: Table C1, six wafers, disk loads of Table B
[5] = tested on: BSBL bacteria; details: all of the BSBL bacteria in Table C1
Excerpt: Synergies are generated with the method on agar by the antibiotics diffusing in the agar as a result of the fact that providing the distance between two antibiotics is small enough (in the range 2 centimeters (cm) to 2.5 cm for Gram negative bacteria) they are capable of diffusing over a common portion of the agar, and as a result it is the association of the two antibiotics in this specific location that makes it possible, where appropriate, to see the appearance of a new inhibition zone, which is the synergy zone.
In the event of synergy occurring, it is possible to see mechanisms of synergy between two antibiotics since an additional inhibition zone appears generally between the two antibiotics in question. It may be in the form of an enlargement of the diameter around the disk A going towards the disk B if A and B present mutual synergy.
The BSBL phenotype includes a synergy phenotype between ceftriaxone and clavulanic acid, and thus between CRO and TCC or AMC (for all of the BSBL bacteria in the table).

[6] = tested on: Enterobacter aerogenes; assay: antibiogram by diffusion on Mueller-Hinton agar with antibiotic wafers; format: cell-based; details: Table C1, six wafers, disk loads of Table B
[7] = tested on: Klebsiella oxytoca; assay: as above; format: cell-based; details: Table C1; K. oxytoca phenotype Wild; six wafers, disk loads of Table B
[8] = tested on: Enterobacter cloacea; assay: as above; format: cell-based; details: Table C1, six wafers, disk loads of Table B
[9] = P. mirabilis phenotype Hl cephalosporinase
[10] = P. mirabilis phenotype Hl penicillinase
[11] = P. mirabilis phenotype Inhibitor resistant penicillinase
[12] = P. mirabilis phenotype Ll penicillinase
[13] = E. coli strain of BSBL phenotype, champagne-cork shaped inhibition zone
[14] = E. coli phenotype BSBL, six wafers
[15] = E. coli phenotype Carbapenemase, six wafers
[16] = E. coli phenotype Hl cephalosporinase, six wafers
[17] = E. coli phenotype Hl penicillinase, six wafers
[18] = E. coli phenotype Inhibitor resistant penicillinase, six wafers
[19] = E. coli phenotype Ll penicillinase, six wafers
[20] = E. coli phenotype Wild, six wafers in a circle
[21] = E. coli phenotype Cephalosporinase + R to fluoroquinolones + R to cotrimoxazole + partial R to aminosides, sixteen wafers
[22] = E. coli phenotype Hl penicillinase + R to fluoroquinolones + R to cotrimoxazole + partial R to aminosides, sixteen wafers
[23] = E. coli phenotype Wild, sixteen wafers in a rectangular grid
[24] = K. pneumoniae phenotype Cephalosporinase + R to aminosides + R to cotrimoxazole
[25] = P. aeruginosa Abnormal phenotype
[26] = P. aeruginosa phenotype Carbapenemase
[27] = P. aeruginosa phenotype Penicillinase
[28] = P. aeruginosa phenotype Selective imipenem permeability
[29] = K. pneumoniae phenotype Carbapenemase
[30] = K. pneumoniae phenotype Hl cephalosporinase
[31] = K. pneumoniae phenotype Hl penicillinase
[32] = K. pneumoniae phenotype Ll penicillinase

Compound	resistance (I, R) or sensitivity (S) [1, 9]	resistance (I, R) or sensitivity (S) [1, 10]	resistance (I, R) or sensitivity (S) [1, 11]	resistance (I, R) or sensitivity (S) [1, 12]	resistance (I, R) or sensitivity (S) ([1]; P. mirabilis phenotype Wild)	synergy zone between two antibiotic wafers placed side by side [2, 13]	resistance (I, R) or sensitivity (S) [2, 14]	resistance (I, R) or sensitivity (S) [2, 15]	resistance (I, R) or sensitivity (S) [2, 16]	resistance (I, R) or sensitivity (S) [2, 17]	resistance (I, R) or sensitivity (S) [2, 18]	resistance (I, R) or sensitivity (S) [2, 19]	resistance (I, R) or sensitivity (S) [2, 20]	resistant (I/R) or sensitive (S) [2, 21]	resistant (I/R) or sensitive (S) [2, 22]	resistant (I/R) or sensitive (S) [2, 23]	resistant (I/R) or sensitive (S) [3, 24]	resistant (I/R) or sensitive (S) ([3]; K. pneumoniae phenotype Wild)	resistance (I, R) or sensitivity (S) [4, 25]	resistance (I, R) or sensitivity (S) ([4]; P. aeruginosa phenotype BSBL)	further results
ticarcillin-clavulanic acid [TCC]	R	I	R	S	S	presence of a zone of synergy	R	R	R	I/R	R	S	S	R	I	S	R	R	R	I/R	synergy zone between two antibiotic wafers placed side by side ([2]; E. coli cephalosporinase phenotype (FIGS. 2D, 2E)): absence of a zone of synergy; resistance (I, R) or sensitivity (S) [4, 26]: R; resistance (I, R) or sensitivity (S) [4, 27]: I/R; resistance (I, R) or sensitivity (S) [4, 28]: S; resistance (I, R) or sensitivity (S) ([4]; P. aeruginosa phenotype Wild): S; synergy phenotype between antibiotics [5]: synergy
CO/N=C(\C(=O)N[C@@H]1C(=O)N2C(C(=O)[O-])=C(C[N+]3(C)CCCC3)CS[C@H]12)c1csc(N)n1 [FEP, cefepime]	R	S	S	S	S	–	R	R	R	S	S	S	S	–	–	–	–	–	R	I/R	resistance (I, R) or sensitivity (S) ([6]; E. aerogenes phenotype BSBL): R/I; resistance (I, R) or sensitivity (S) ([6]; E. aerogenes phenotype Wild): S; resistance (I, R) or sensitivity (S) [7]: S; resistance (I, R) or sensitivity (S) ([8]; E. cloacae phenotype BSBL): R; resistance (I, R) or sensitivity (S) ([8]; E. cloacae phenotype Wild): S; resistance (I, R) or sensitivity (S) ([3]; K. pneumoniae phenotype BSBL): R; resistance (I, R) or sensitivity (S) [3, 29]: R; resistance (I, R) or sensitivity (S) [3, 30]: S; resistance (I, R) or sensitivity (S) [3, 31]: S; resistance (I, R) or sensitivity (S) [3, 32]: S; resistance (I, R) or sensitivity (S) ([3]; K. pneumoniae phenotype Wild): S; resistance (I, R) or sensitivity (S) [4, 26]: R; resistance (I, R) or sensitivity (S) [4, 27]: S; resistance (I, R) or sensitivity (S) [4, 28]: S; resistance (I, R) or sensitivity (S) ([4]; P. aeruginosa phenotype Wild): S
CO/N=C(\C(=O)N[C@@H]1C(=O)N2C(C(=O)O)=C(CSc3nc(=O)c(=O)[nH]n3C)CS[C@H]12)c1csc(N)n1 [CRO, ceftriaxone]	R	S	S	S	S	synergy zone	R	R	R	S	S	S	S	R	S	S	R	R	–	–	resistance (I, R) or sensitivity (S) ([6]; E. aerogenes phenotype BSBL): R; resistance (I, R) or sensitivity (S) ([6]; E. aerogenes phenotype Wild): S; resistance (I, R) or sensitivity (S) [7]: S; resistance (I, R) or sensitivity (S) ([8]; E. cloacae phenotype BSBL): R; resistance (I, R) or sensitivity (S) ([8]; E. cloacae phenotype Wild): S; synergy zone between two antibiotic wafers placed side by side ([2]; E. coli strain of BSBL phenotype, champagne-cork shaped inhibition zone, listed as ceftriaxone): synergy; resistance (I, R) or sensitivity (S) ([3]; K. pneumoniae phenotype BSBL): I/R; resistance (I, R) or sensitivity (S) [3, 29]: R; resistance (I, R) or sensitivity (S) [3, 30]: I/R; resistance (I, R) or sensitivity (S) [3, 31]: I; resistance (I, R) or sensitivity (S) [3, 32]: S; resistance (I, R) or sensitivity (S) ([3]; K. pneumoniae phenotype Wild): S; synergy phenotype between antibiotics [5]: synergy
